Data set [1] relates to A549 human lung carcinoma cells. Put plainly: MTS cell viability assay, A549 human lung carcinoma cells. The data set is classed as cell-based. As to conditions: A549, 4 h compound incubation, MTS, read-out: IC50 Values, Cancerous Cells, Lung A549.
The subject of data set [2] is DLD-1 human colon carcinoma cells. Put plainly: MTS cell viability assay, DLD-1 human colon carcinoma cells. The data set is classed as cell-based. As to conditions: DLD-1, 4 h compound incubation, MTS, read-out: IC50 Values, Cancerous Cells, Colon DLD-1.
For data set [3], the system named is DU-145 human prostate carcinoma cells. Put plainly: MTS cell viability assay, DU-145 human prostate carcinoma cells. The data set is classed as cell-based. Conditions: DU-145, 4 h compound incubation, MTS, read-out: IC50 Values, Cancerous Cells, Prostate DU-145.
Data set [4] deals with K-562 human leukemia cells. Put plainly: MTS cell viability assay, K-562 human leukemia cells. It counts as cell-based. Conditions: K562, K-562, 4 h compound incubation, MTS, read-out: IC50 Values, Cancerous Cells, Leukemia K-562.
The test system of data set [5] is HT-29 human colon carcinoma cells. Kind of data set: MTS cell viability assay, HT-29 human colon carcinoma cells. As to conditions: 4 h compound incubation, read-out: IC50 Values, Cancerous Cells, Colon HT-29. The data set is classed as cell-based.
For data set [6], the system named is PACA-2 human pancreatic carcinoma cells. Kind of data set: MTS cell viability assay, PACA-2 human pancreatic carcinoma cells. It counts as cell-based. Conditions: PACA-2, 4 h compound incubation, MTS, read-out: IC50 Values, Cancerous Cells, Pancreas PACA-2.
In data set [7] the test system is NCM-460 normal colon epithelial cells. Put plainly: MTS cell viability assay, NCM-460 normal colon epithelial cells. It counts as cell-based. Conditions: for pIC50: Homo sapiens, NCM460, NCM-460, 4 h compound incubation, MTS, read-out: IC50 Values, Normal Cells, Colon NCM-460; for Fold Selectivity (NCM-460/DLD1): ratio of IC50 NCM-460 / DLD1.
For the next data set, the system named is E2F-1. Put plainly: E2F-1 induction in HT-29 cells. It counts as cell-based, human. From the text: Another effect of the compounds of the present invention is the induction or elevation of activity (e.g. elevation of the level) of one or more checkpoint molecules (i.e., a member of the E2F family of transcription factors). Studies have shown that β-lapachone induces activation of E2F1 checkpoint pathway in nuclei of cancer cells but not in normal cells, resulting in the arrest of cancer cells in G1 and/or S phase. Several compounds of the present invention were effective in activating the E2F1 checkpoint pathway (e.g. elevation of E2F1 levels), thus causing G1 and/or S phase arrest. Furthermore, the compounds of the present invention have no significant toxic effects on normal cells (See. Table 1). The assays of the present invention as shown in Table 1 and methods of measuring induction of E2F1 activity and elevation of E2F1 levels can be carried out following the descriptions found in Li et al., (2003) Proc Natl Acad Sci USA. 100(5): 2674-8 and U.S. Patent Application Publication No. 2002/0169135, both incorporated herein by reference.

Data set [8] deals with HT29 human colon cancer xenograft. Kind of data set: Colon cancer xenograft model (HT29) in athymic nude mice. It counts as in vivo. On the procedure: Tumors were allowed to grow to approximately 70 mm^3 in size. Animals were randomized into two groups of eight animals per group. […] Drug or vehicle was administered every Monday, Wednesday and Friday for a total of nine doses (qMWFx3). Tumor size was evaluated periodically during the study. For each subject, tumor volume was calculated using the formula (L×W^2)/2 where L and W were the length and width of the tumor, respectively. The arithmetic mean tumor volume was calculated for each treatment group +/− standard error of the mean (SEM). […] Tumors were allowed to grow to approximately 90 mm^3 in size. Animals were randomized into three groups of eight animals per group. […] Drug or vehicle was administered every Monday, Wednesday and Friday for a total of nine doses (qMWFx3). Tumor size was evaluated periodically during the study. For each subject, tumor volume was calculated using the formula (L×W^2)/2 where L and W were the length and width of the tumor, respectively. The arithmetic mean tumor volume was calculated for each treatment group +/− standard error of the mean (SEM). […] Tumors were allowed to grow to approximately 60 mm^3 in size. Animals were randomized into two groups of eight animals per group. At day five post injection, mice with established tumors were treated intraperitoneally with either Compound 182 (40 mg/kg) or vehicle control. Drug or vehicle was administered every Monday, Wednesday and Friday for a total of nine doses (qMWFx3). Tumor size was evaluated periodically during the study. For each subject, tumor volume was calculated using the formula (L×W^2)/2 where L and W were the length and width of the tumor, respectively. The arithmetic mean tumor volume was calculated for each treatment group +/− standard error of the mean (SEM). […] Tumors were allowed to grow to approximately 50 mm^3 in size. Animals were randomized into three groups of five animals per group. At day eight post injection, mice with established tumors were treated intraperitoneally with either Compound 180 (40 mg/kg) or Compound 125 (40 mg/kg) and vehicle control. Drug or vehicle was administered every Monday, Wednesday and Friday for a total of twelve doses (qMWFx4). Tumor size was evaluated periodically during the study. For each subject, tumor volume was calculated using the formula (L×W^2)/2 where L and W were the length and width of the tumor, respectively. The arithmetic mean tumor volume was calculated for each treatment group +/−standard error of the mean (SEM).

In another data set the test system is human cancer cell lines. Conditions: single agent; read-out: antineoplastic activity against human cancer cell lines (IC50); cited from earlier work.
The test system of data set [9] is normal fresh or proliferating human PBMC. As to conditions: cited from earlier work.
Setting [10] is: 32 mg/kg intraperitoneally qMWFx3, HT29 xenograft.
The mark [11] stands for this setting: 40 mg/kg intraperitoneally qMWFx4, HT29 xenograft.
Setting [12] is: 40 mg/kg intraperitoneally qMWFx3, HT29 xenograft.
Where [13] appears, read: 48 mg/kg intraperitoneally qMWFx3, HT29 xenograft.

Molecules are shown by their SMILES. pIC50: −log10 of the molar value.

The text below walks through data of patent US7902354B2, “Lapachone compounds and methods of use thereof” (ArQule, Inc., priority 2006, dated 2011).

For the molecule `O=C1C(=O)c2ccccc2C2=C1SCC1(CCN(C[C@H](O)Cc3ccccc3)CC1)O2` [Compound 186, 1′-[(2R)-2-hydroxy-3-phenylpropyl]spiro[naphtho[1,2-b][1,4]oxathiine-2,4′-piperidine]-5,6-dione], the negative-log IC50 (pIC50) was 5.26 in data set [1]; 5.82 in [2]; 5.68 in [3]; 5.64 in data set [4]; 5.19 in data set [5]; 5.82 in [6]. In addition, the negative-log IC50 (pIC50) in data set [7] was 5.17. Further, in data set [7], the “Fold Selectivity (NCM-460/DLD1)” value was found to be 4.7. For the same molecule, the “E2F-1 Induction (HT-29)” value in the data set on E2F-1 is listed as “YES”. The “% T/C” value in [8] (setting [10]) was 50%. Moreover, the “reduction of mean tumor volume compared to vehicle treated control” value (“reduction of mean tumor volume” below) in data set [8] (setting [10]) is reported as 50%.
As for `O=C1C(=O)c2ccccc2C2=C1SCC1(CCN(Cc3ccc(F)cc3)CC1)O2` [Compound 125, 1′-(4-fluorobenzyl)spiro[naphtho[1,2-b][1,4]oxathiine-2,4′-piperidine]-5,6-dione], the pIC50 in data set [1] is 5.02; in data set [2], 5.77; in data set [3] it was 5.30; in data set [4] it was 5.43; in data set [5], 5.31; in [6], 5.60. Further, in data set [7], the pIC50 was 5.01. The “Fold Selectivity (NCM-460/DLD1)” value in data set [7] came to 5.7. Besides, in the data set with E2F-1, the “E2F-1 Induction (HT-29)” value is “Yes”. In data set [8] (setting [11]), the “% T/C” value stood at 46.2%. Besides, in data set [8] (setting [11]), the “reduction of mean tumor volume” value came to 57.8%.
For `CC1(C)CCC2=C(O1)c1ccccc1C(=O)C2=O` [β-lapachone, 3,4-dihydro-2,2-dimethyl-2H-naphtho[1,2-b]pyran-5,6-dione], the pIC50 with human cancer cell lines was 5.00 to 6.00. For the same molecule, the “cytotoxic effects on normal fresh or proliferating human PBMC” value in data set [9] is recorded as “No cytotoxic effects”.
`CC(C)(C)c1ccc(OC[C@@H](O)CN2CCC3(CC2)CSC2=C(O3)c3ccccc3C(=O)C2=O)cc1` [Compound 184, 1′-[(2S)-3-(4-tert-butylphenoxy)-2-hydroxypropyl]spiro[naphtho[1,2-b][1,4]oxathiine-2,4′-piperidine]-5,6-dione]: the negative-log IC50 (pIC50) in data set [1] was 5.23; in data set [2], 5.59; in data set [3] it was 5.78; in [4], 5.27; in data set [5], 5.44; in data set [6], 5.77. For the same molecule, in data set [7], the pIC50 was 4.56. Also, the “Fold Selectivity (NCM-460/DLD1)” value in [7] stood at 10.8. Moreover, the “E2F-1 Induction (HT-29)” value in the data set on E2F-1 is “Yes”. Moreover, the “% T/C” value in data set [8] (setting [10]) was determined as 29.8%. The “reduction of mean tumor volume” value in data set [8] (setting [10]) is recorded as 70.2%.
In the case of `O=C1C(=O)c2ccccc2C2=C1SCC1(CCN(C[C@H](O)COc3ccc(Cl)cc3)CC1)O2` [Compound 182, 1′-[(2S)-3-(4-chlorophenoxy)-2-hydroxypropyl]spiro[naphtho[1,2-b][1,4]oxathiine-2,4′-piperidine]-5,6-dione], the negative-log IC50 (pIC50) in data set [1] was 5.19; in data set [2] it was 5.89; in data set [3], 5.89; in [4], 5.49; in data set [5], 5.68; in [6], 5.88. Further, the pIC50 in data set [7] was 4.95. Also, in data set [7], the “Fold Selectivity (NCM-460/DLD1)” value is reported as 8.6. The “E2F-1 Induction (HT-29)” value with E2F-1 is “Yes”. For the same molecule, in data set [8] (setting [12]), the “% T/C” value is recorded as 44.8%. The “reduction of mean tumor volume” value in data set [8] (setting [12]) was 55.2%.
With `O=C1C(=O)c2ccccc2C2=C1SCC1(CCN(C[C@H](O)COc3ccc(F)cc3)CC1)O2` [Compound 180, 1′-[(2S)-3-(4-fluorophenoxy)-2-hydroxypropyl]spiro[naphtho[1,2-b][1,4]oxathiine-2,4′-piperidine]-5,6-dione], the pIC50 in data set [1] is 5.45; in [2], 6.15; in data set [3], 5.83; in data set [4], 5.84; in [5], 5.66; in data set [6] it was 6.02. For the same molecule, in data set [7], the pIC50 was 5.45. Besides, in data set [7], the “Fold Selectivity (NCM-460/DLD1)” value amounted to 5.0. Besides, the “E2F-1 Induction (HT-29)” value with E2F-1 is “Yes”. For the same molecule, the “% T/C” value in data set [8] (setting [11]) stood at 58.3%. Besides, the “reduction of mean tumor volume” value in data set [8] (setting [11]) was 41.7%.
With `O=C1C(=O)c2ccccc2C2=C1SCC1(CCN(C[C@@H](O)Cc3ccccc3)CC1)O2` [Compound 187, 1′-[(2S)-2-hydroxy-3-phenylpropyl]spiro[naphtho[1,2-b][1,4]oxathiine-2,4′-piperidine]-5,6-dione], the pIC50 is 5.29 in data set [1]; 5.68 in [2]; 5.52 in data set [3]; 5.57 in data set [4]; 5.26 in data set [5]; 5.72 in data set [6]. The negative-log IC50 (pIC50) in data set [7] is 5.09. Moreover, the “E2F-1 Induction (HT-29)” value with E2F-1 was “YES”. The “Opt. % T/C” value in [8] (setting [13]) was found to be 38%. Further, in [8] (setting [13]), the “reduction of mean tumor volume” value was found to be 62%.
